Results taken from US20180148390A1, “METHOD AND COMPOSITION FOR RETAINING NUTRIENTS IN SOIL AT PLANTING SITES” (WaterScience, Inc., priority 2016, published 2018).
Converted amounts (≈) assume the structure as drawn.

Legend:
physchem = conditions: for solubility: 25 °C, pH 7, water
Excerpt: High solubility of naturally occurring positively charged amino acids are subject to runoff, which may be problematic. However, positively charged amino acids are better retained than negatively charged nitrate, sulfate, and phosphate which are poorly retained in the negatively charged soils.

[1] = Column retention of amino acid on WS A201; format: physicochemical; conditions: for amount complexed and retained by the WS A 201 / amount passed through the column: 100 ml solution on 89 ml WS A201 column at 1.5 ml/min, displaced with 100 ml deionized water; for converted to cationic charge: from WS A201 column retention
Protocol: The modified alanine solution was added to 100 ml burette with 9 mm diameter at the rate of 1.5 ml/min. The column was filled with 89 ml of WS A201 (WaterScience, Inc., Peoria, Ill.) which has an anion exchange capacity of 2 EG Kg. To the burette was added 100 ml deionized water to displace the modified alanine. […] The 100 ml of deionized water containing 890.9 mg of unmodified alanine was added to another column containing fresh WS A 201. To the burette was also added 100 ml of deionized water to displace the unmodified alanine solution from the column.
The column was filled with 89 ml of WS A 201 which has an anion exchange capacity of 2 EG Kg. […] The 100 ml of deionized water containing 1471 mg of unmodified glutamic acid was added to another column containing fresh WS A 201. To the burette column was also added 100 ml of deionized water to displace the unmodified glutamic acid solution from the column.
The 1% modified leucine acid solution was added to 100 ml burette with 9 mm diameter at the rate of 1.5 ml/min. The column was filled with 89 ml of WS A 201 which has an anion exchange capacity of 2 EG Kg. To the burette was added 100 ml deionized water to displace the modified leucine. […] The 100 ml of deionized water containing 1312 mg of unmodified leucine was added to another column containing fresh WS A 201. To the burette was also added 100 ml of deionized water to displace the unmodified leucine solution from the column.

[2] = Electro-potential of amino acid in deionized water against a hydrogen electrode; format: physicochemical; conditions: amino acid in 100 ml deionized water, electro-potential meter against hydrogen electrode
Protocol: After drying, 890.9 mg of the modified alanine (i.e., protonated alanine) was added to 100 ml of deionized water to form a modified alanine solution. The electro-potential of the modified alanine water mixture was measured with an electro-potential meter against a hydrogen electrode. […] 890.9 mg sample of unmodified alanine was added to 100 ml of deionized water.
890.9 mg sample of unmodified glutamic acid was added to 100 ml of deionized water.
After drying, 1902 mg of the modified leucine was added to 100 ml of deionized water to form a modified leucine solution. The electro-potential of the modified leucine water mixture was measured with an electro-potential meter against a Hydrogen electrode. […] 1312 mg sample of unmodified leucine was added to 100 ml of deionized water.

SMILES	solubility (physchem) [mg/mL]	reduction of solubility by modification with a weak base to pH 10 (physchem; pH 10) [%]	amount complexed and retained by the WS A 201 [1] [mg]	amount passed through the column [1] [mg]	converted to cationic charge [1] [%]	electro-potential [2] [mV]
NCCCC[C@H](N)C(=O)O [lysine]	1000 (≈ 6840 mM)	89	–	–	–	–
C[C@H](N)C(=O)O [unmodified alanine, alanine, reference compound]	–	–	37.3	853.6	–	–
CC(CNC(=N)N)C[C@H](N)C(=O)O (some centres unmarked) [modified leucine, Guanidine modified leucine]	–	–	1246	66	95	197
CC(C)C[C@H](N)C(=O)O [unmodified leucine, leucine, reference compound]	–	–	41	1271	–	–
N[C@@H](CCC(=O)O)C(=O)O [unmodified glutamic acid, glutamic acid, reference compound]	–	–	79	1392	–	–
N[C@@H](Cc1c[nH]cn1)C(=O)O [histidine]	41.9 (≈ 270 mM)	–	–	–	–	–
C[C@H](N)C(=O)O [modified alanine, Protonated alanine]	–	–	845.8	45.1	94.9	177
